Measurements as given in ChEMBL document CHEMBL4190323, “New racemic annulated pyrazolo[1,2-b]phthalazines as tacrine-like AChE inhibitors with potential use in Alzheimer's disease” (Eur J Med Chem, 2017).
Activity calls are given as the source filed them. No cut-off for these calls is given here.

How the values were obtained:
in vitro [1] = settings: human, HepG2 cells
Description: Cytotoxicity against human HepG2 cells assessed as cell viability at 100 uM after 24 hrs by MTT assay relative to control

Cholinesterase = Cholinesterase (Equus caballus, UniProt P81908); assay: Inhibition of equine serum BuChE using butyrylthiocholine iodide as substrate preincubated for 10 mins followed by substrate addition measured for 6 mins by Ellman's method
PC-12 [2] = assay: Neuroprotective activity in rat PC12 cells assessed as decrease in H2O2 mediated apoptosis at 1 uM preincubated for 3 hrs followed by H2O2 challenge measured after 24 hrs by MTT assay; assay type: functional, cell-based
in vitro [3] = settings: human, HepG2 cells; remark: listed apart in the source
Description: Cytotoxicity against human HepG2 cells assessed as cell viability at 25 uM after 24 hrs by MTT assay relative to control

PC-12 [4] = assay: Neuroprotective activity in rat PC12 cells assessed as decrease in H2O2-mediated apoptosis at 100 uM preincubated for 3 hrs followed by H2O2 challenge measured after 24 hrs by MTT assay; assay type: functional, cell-based
Acetylcholinesterase [5] = target: T1, Acetylcholinesterase (Electrophorus electricus, UniProt O42275); assay: Mixed-type inhibition of electric eel AChE using acetylthiocholine iodide as substrate preincubated for 10 mins followed by substrate addition measured for 6 mins by Lineweaver-Burk plot analysis
in vitro [6] = settings: human, HepG2 cells; remark: listed apart in the source
Description: Cytotoxicity against human HepG2 cells assessed as cell viability at 10 uM after 24 hrs by MTT assay relative to control

in vitro [7] = settings: human, HepG2 cells; remark: listed apart in the source
Description: Cytotoxicity against human HepG2 cells assessed as cell viability at 50 uM after 24 hrs by MTT assay relative to control

PC-12 [8] = assay: Neuroprotective activity in rat PC12 cells assessed as decrease in H2O2 mediated apoptosis at 10 uM preincubated for 3 hrs followed by H2O2 challenge measured after 24 hrs by MTT assay; assay type: functional, cell-based
in vitro [9] = settings: human, HepG2 cells; remark: listed apart in the source
Description: Cytotoxicity against human HepG2 cells assessed as cell viability at 300 uM after 24 hrs by MTT assay relative to control

Acetylcholinesterase [10] = target: T1, Acetylcholinesterase; assay: Inhibition of electric eel AChE using acetylthiocholine iodide as substrate preincubated for 10 mins followed by substrate addition measured for 6 mins by Ellman's method
PC-12 [11] = assay: Neurotoxicity in rat PC12 cells assessed as reduction in cell viability at 1 to 10 uM after 24 hrs by MTT assay; assay type: toxicity, cell-based; settings: pc-12, 24 h
in vitro [12] = settings: human, HepG2 cells; remark: listed apart in the source
Description: Cytotoxicity against human HepG2 cells assessed as cell viability at 1 uM after 24 hrs by MTT assay relative to control

in vitro [13] = settings: human, HepG2 cells; remark: listed apart in the source
Description: Cytotoxicity against human HepG2 cells assessed as cell viability at 5 uM after 24 hrs by MTT assay relative to control

[14] = target: Acetylcholinesterase (Electrophorus electricus) (UniProt O42275); assay: Potency index, ratio of IC50 for tacrine to IC50 for test compound for electric eel AChE
Chain of Acetylcholinesterase (Electrophorus electricus) (O42275 24-633 limits assumed): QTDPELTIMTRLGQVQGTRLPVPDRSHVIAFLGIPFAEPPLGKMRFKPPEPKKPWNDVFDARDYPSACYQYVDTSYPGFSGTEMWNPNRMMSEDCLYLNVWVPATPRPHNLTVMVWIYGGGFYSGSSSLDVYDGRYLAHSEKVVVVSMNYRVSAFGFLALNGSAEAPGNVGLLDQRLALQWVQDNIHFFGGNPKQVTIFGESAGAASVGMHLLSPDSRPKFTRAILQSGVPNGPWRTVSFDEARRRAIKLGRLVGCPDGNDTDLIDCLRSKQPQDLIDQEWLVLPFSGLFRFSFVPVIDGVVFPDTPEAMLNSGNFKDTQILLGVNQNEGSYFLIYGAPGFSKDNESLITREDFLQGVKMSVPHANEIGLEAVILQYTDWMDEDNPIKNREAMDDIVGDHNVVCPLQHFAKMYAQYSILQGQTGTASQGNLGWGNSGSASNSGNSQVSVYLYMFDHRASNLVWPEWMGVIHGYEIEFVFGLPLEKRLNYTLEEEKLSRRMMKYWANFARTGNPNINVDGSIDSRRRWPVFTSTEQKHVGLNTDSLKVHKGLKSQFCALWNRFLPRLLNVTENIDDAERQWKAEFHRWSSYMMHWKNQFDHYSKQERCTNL

T1 sequence (O42275 whole entry): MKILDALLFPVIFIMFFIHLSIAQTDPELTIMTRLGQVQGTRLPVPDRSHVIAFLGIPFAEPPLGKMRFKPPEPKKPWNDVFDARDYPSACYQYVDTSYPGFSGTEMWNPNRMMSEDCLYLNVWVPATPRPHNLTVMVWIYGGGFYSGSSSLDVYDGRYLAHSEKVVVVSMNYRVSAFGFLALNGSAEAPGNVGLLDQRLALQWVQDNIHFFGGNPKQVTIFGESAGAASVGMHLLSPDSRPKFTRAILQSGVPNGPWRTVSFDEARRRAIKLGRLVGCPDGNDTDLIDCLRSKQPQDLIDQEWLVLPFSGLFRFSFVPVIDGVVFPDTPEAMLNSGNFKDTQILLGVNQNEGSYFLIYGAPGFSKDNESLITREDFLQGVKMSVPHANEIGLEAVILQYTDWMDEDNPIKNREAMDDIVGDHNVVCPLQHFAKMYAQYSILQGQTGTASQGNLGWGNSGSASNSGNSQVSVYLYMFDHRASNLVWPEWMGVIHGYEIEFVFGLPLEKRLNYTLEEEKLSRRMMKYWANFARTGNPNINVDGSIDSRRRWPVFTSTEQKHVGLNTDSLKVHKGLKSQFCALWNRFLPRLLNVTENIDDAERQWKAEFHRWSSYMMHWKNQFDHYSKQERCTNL
Chain of Cholinesterase (P81908 whole entry): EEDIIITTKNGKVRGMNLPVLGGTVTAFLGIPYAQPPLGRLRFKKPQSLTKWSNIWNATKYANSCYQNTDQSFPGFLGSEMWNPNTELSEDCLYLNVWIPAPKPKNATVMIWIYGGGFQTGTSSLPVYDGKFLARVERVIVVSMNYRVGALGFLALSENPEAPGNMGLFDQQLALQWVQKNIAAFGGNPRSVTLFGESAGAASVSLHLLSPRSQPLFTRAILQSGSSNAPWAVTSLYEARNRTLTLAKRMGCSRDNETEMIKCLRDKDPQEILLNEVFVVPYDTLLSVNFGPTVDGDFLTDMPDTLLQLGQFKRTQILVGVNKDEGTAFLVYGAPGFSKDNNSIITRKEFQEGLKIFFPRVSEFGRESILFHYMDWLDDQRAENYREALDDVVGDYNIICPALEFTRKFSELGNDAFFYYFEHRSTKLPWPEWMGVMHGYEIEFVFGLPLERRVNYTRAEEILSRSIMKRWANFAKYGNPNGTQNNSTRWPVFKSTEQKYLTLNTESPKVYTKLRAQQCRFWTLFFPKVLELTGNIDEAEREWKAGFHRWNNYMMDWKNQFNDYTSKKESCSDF

Structure (SMILES) | IC50 (Cholinesterase) | IC50 (Acetylcholinesterase [10]) | other results
COc1ccccc1C1c2c(nc3c(c2N)CCCC3)-n2c(=O)c3ccccc3c(=O)n21 (centres undefined) | 93300 nM | 49 nM | viability at 24 h, 100 µM (in vitro [1]): 86.4%; Activity (PC-12 [2]): inactive; viability at 24 h, 25 µM (in vitro [3]): 90.2%; Activity (PC-12 [4]): Active; Ki (Acetylcholinesterase [5]): 12.6 nM; viability at 24 h, 10 µM (in vitro [6]): 95.2%; viability at 24 h, 50 µM (in vitro [7]): 87.3%; Activity (PC-12 [8]): inactive; viability at 24 h, 300 µM (in vitro [9]): 83%; Activity (PC-12 [11]): Non-Toxic; viability at 24 h, 1 µM (in vitro [12]): 96.3%; viability at 24 h, 5 µM (in vitro [13]): 95%
Nc1c2c(nc3c1C(c1ccccc1F)n1c(=O)c4ccccc4c(=O)n1-3)CCCC2 (centres undefined) | > 100000 nM | 618 nM | –
CCCCCC1c2c(nc3c(c2N)CCCC3)-n2c(=O)c3ccccc3c(=O)n21 (centres undefined) | > 100000 nM | 612 nM | –
Nc1c2c(nc3c1C(c1ccccc1[N+](=O)[O-])n1c(=O)c4ccccc4c(=O)n1-3)CCCC2 (centres undefined) | > 100000 nM | 280 nM | –
Nc1c2c(nc3c1C(c1ccc(Cl)cc1)n1c(=O)c4ccccc4c(=O)n1-3)CCCC2 (centres undefined) | 96200 nM | 60 nM | viability at 24 h, 100 µM (in vitro [1]): 91.3%; viability at 24 h, 25 µM (in vitro [3]): 94.4%; viability at 24 h, 10 µM (in vitro [6]): 95.1%; viability at 24 h, 50 µM (in vitro [7]): 92.4%; viability at 24 h, 300 µM (in vitro [9]): 89.3%; viability at 24 h, 1 µM (in vitro [12]): 98.6%; viability at 24 h, 5 µM (in vitro [13]): 96.2%
CC1c2c(nc3c(c2N)CCCC3)-n2c(=O)c3ccccc3c(=O)n21 (centres undefined) | > 100000 nM | 2150 nM | –
Nc1c2c(nc3c1C(c1cccc(Br)c1)n1c(=O)c4ccccc4c(=O)n1-3)CCCC2 (centres undefined) | > 100000 nM | 271 nM | –
O=c1c(O)c(-c2ccc(O)c(O)c2)oc2cc(O)cc(O)c12 | – | – | Activity (PC-12 [8]): Active
Cc1cccc(C2c3c(nc4c(c3N)CCCC4)-n3c(=O)c4ccccc4c(=O)n32)c1 (centres undefined) | > 100000 nM | 467 nM | –
Cc1ccccc1C1c2c(nc3c(c2N)CCCC3)-n2c(=O)c3ccccc3c(=O)n21 (centres undefined) | > 100000 nM | 193 nM | –
Cc1ccc(C2c3c(nc4c(c3N)CCCC4)-n3c(=O)c4ccccc4c(=O)n32)cc1 (centres undefined) | > 100000 nM | 100 nM | –
Nc1c2c(nc3c1C(c1cccc(F)c1)n1c(=O)c4ccccc4c(=O)n1-3)CCCC2 (centres undefined) | 37200 nM | 23 nM | viability at 24 h, 100 µM (in vitro [1]): 74.8%; viability at 24 h, 25 µM (in vitro [3]): 82.7%; viability at 24 h, 10 µM (in vitro [6]): 86.1%; viability at 24 h, 50 µM (in vitro [7]): 78.8%; Ratio IC50 [14]: 15; viability at 24 h, 300 µM (in vitro [9]): 68.2%; viability at 24 h, 1 µM (in vitro [12]): 93.5%; viability at 24 h, 5 µM (in vitro [13]): 90.9%
Nc1c2c(nc3c1C(c1ccccc1Cl)n1c(=O)c4ccccc4c(=O)n1-3)CCCC2 (centres undefined) | > 100000 nM | 592 nM | –
Nc1c2c(nc3c1C(c1ccccc1)n1c(=O)c4ccccc4c(=O)n1-3)CCCC2 (centres undefined) | > 100000 nM | 614 nM | –
Nc1c2c(nc3c1C(c1cccc([N+](=O)[O-])c1)n1c(=O)c4ccccc4c(=O)n1-3)CCCC2 (centres undefined) | > 100000 nM | 140 nM | –
Nc1c2c(nc3c1C(c1ccc([N+](=O)[O-])cc1)n1c(=O)c4ccccc4c(=O)n1-3)CCCC2 (centres undefined) | > 100000 nM | 310 nM | –
CCCC1c2c(nc3c(c2N)CCCC3)-n2c(=O)c3ccccc3c(=O)n21 (centres undefined) | > 100000 nM | 1630 nM | –
Nc1c2c(nc3c1C(c1ccc(Br)cc1)n1c(=O)c4ccccc4c(=O)n1-3)CCCC2 (centres undefined) | > 100000 nM | 80 nM | viability at 24 h, 100 µM (in vitro [1]): 92.8%; viability at 24 h, 25 µM (in vitro [3]): 96.4%; viability at 24 h, 10 µM (in vitro [6]): 97.6%; viability at 24 h, 50 µM (in vitro [7]): 95.7%; viability at 24 h, 300 µM (in vitro [9]): 90%; viability at 24 h, 1 µM (in vitro [12]): 99.8%; viability at 24 h, 5 µM (in vitro [13]): 98.3%
COc1cc(OC)cc(C2c3c(nc4c(c3N)CCCC4)-n3c(=O)c4ccccc4c(=O)n32)c1 (centres undefined) | > 100000 nM | 3370 nM | –
Nc1c2c(nc3c1C(c1ccccc1Br)n1c(=O)c4ccccc4c(=O)n1-3)CCCC2 (centres undefined) | > 100000 nM | 599 nM | –
Nc1c2c(nc3c1C(c1cccc(O)c1)n1c(=O)c4ccccc4c(=O)n1-3)CCCC2 (centres undefined) | > 100000 nM | 160 nM | –
Nc1c2c(nc3c1C(c1ccc(F)cc1)n1c(=O)c4ccccc4c(=O)n1-3)CCCC2 (centres undefined) | > 100000 nM | 69 nM | viability at 24 h, 100 µM (in vitro [1]): 71.4%; viability at 24 h, 25 µM (in vitro [3]): 80%; viability at 24 h, 10 µM (in vitro [6]): 83.3%; viability at 24 h, 50 µM (in vitro [7]): 75.9%; viability at 24 h, 300 µM (in vitro [9]): 66.4%; viability at 24 h, 1 µM (in vitro [12]): 91.2%; viability at 24 h, 5 µM (in vitro [13]): 87.5%
